Test results: patent publication US20230212210A1 (priority 2020, published 2023)

How the values were obtained:
DC-SIGN = molecular target: T1, DC-SIGN (Homo sapiens, UniProt Q9NNX6); assay: Binding of DC-SIGN to an HMO chip; settings: Cy3-labelled DC-SIGN
T1 sequence (Q9NNX6 1-404): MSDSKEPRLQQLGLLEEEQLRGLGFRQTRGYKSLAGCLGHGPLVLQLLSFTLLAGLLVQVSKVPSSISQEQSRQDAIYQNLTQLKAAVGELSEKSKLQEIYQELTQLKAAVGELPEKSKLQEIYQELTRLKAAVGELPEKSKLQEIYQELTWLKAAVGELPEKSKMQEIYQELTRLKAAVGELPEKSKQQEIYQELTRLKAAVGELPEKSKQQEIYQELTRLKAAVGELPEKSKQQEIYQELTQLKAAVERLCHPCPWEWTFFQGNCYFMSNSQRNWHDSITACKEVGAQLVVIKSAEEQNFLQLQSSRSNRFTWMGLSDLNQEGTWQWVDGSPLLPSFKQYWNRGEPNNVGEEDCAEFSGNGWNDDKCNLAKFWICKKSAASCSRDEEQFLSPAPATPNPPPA

[1] = test system: SARS-CoV-2 pseudovirus in Vero-E6 cells; assay type: cell-based
[2] = molecular target: S1 subunit (the S1 protein) of SARS-CoV-2 binding to lung epithelial cells (BEAS-2B cells) (Severe acute respiratory syndrome coronavirus 2, UniProt P0DTC2); assay type: cell-based; settings: fixed cells pre-incubated with sugar chain 1 h, S1 subunit 1 μM
[3] = molecular target: S1 subunit (the S1 protein) of SARS-CoV-2 binding to African green monkey kidney cells (Vero-E6 cells) (Severe acute respiratory syndrome coronavirus 2, UniProt P0DTC2); assay type: cell-based; settings: fixed cells pre-incubated with sugar chain 1 h, S1 subunit 1 μM
[4] = molecular target: S1 subunit (the S1 protein) of SARS-CoV-2 binding to 16HBE cells (bronchial epithelial cells) (Severe acute respiratory syndrome coronavirus 2, UniProt P0DTC2); assay type: cell-based; settings: 40 μM chondroitin sulfate, 20 μM fucoidan, 1 h pre-incubation; confocal microscopy
S1 subunit of SARS-CoV-2 = S1 subunit of SARS-CoV-2 (Severe acute respiratory syndrome coronavirus 2, UniProt P0DTC2)

## CC(=O)N[C@H]1[C@H](O[C@H]2[C@@H](O)[C@@H](CO)O[C@@H](O[C@H]3[C@H](O)[C@@H](O)C(O)O[C@@H]3CO)[C@@H]2O)O[C@H](CO)[C@@H](O[C@@H]2O[C@H](CO)[C@H](O)[C@H](O)[C@H]2O)[C@@H]1O[C@@H]1O[C@@H](C)[C@@H](O)[C@@H](O)[C@@H]1O (stereo partly drawn) [HMO14, Galβ1-4(Fucα1-3)GlcNAcβ1-3Galβ1-4Glc]
DC-SIGN
  Binding of DC-SIGN to an HMO chip, RFU: 2125.34 RFU

## fucoidan
[1]
  inhibition activity to pseudovirus invasion and infection of the cells: exhibit an inhibition activity
[2]
  blocking of the binding of the S1 subunit to BEAS-2B cells: can block
[3]
  blocking of the binding of the S1 subunit to Vero-E6 cells: can block
[4]
  blocking of the binding of the S1 protein to bronchial epithelial cells (16HBE): successfully block

## CC(=O)N[C@@H]1[C@@H](O[C@@H]2O[C@H](CO)[C@@H](O)[C@H](O)[C@H]2NC(C)=O)[C@@H](O)[C@@H](CO[C@@H]2O[C@H](CO)[C@@H](O)[C@H](O)[C@H]2NC(C)=O)O[C@@H]1O [O39, GlcNAcβ1-6(GlcNAcβ1-3)GalNAcα]
S1 subunit of SARS-CoV-2
  Binding of the S1 subunit of a virus to an O-sugar chain chip, RFU: 136.5 RFU

## Neu5Acα2-3Galβ1-4GlcNAcβ1-3GalNAcα [O29]
S1 subunit of SARS-CoV-2
  Binding of the S1 subunit of a virus to an O-sugar chain chip, RFU: 2866.34 RFU

## Fucα1-2Galβ1-4GlcNAcβ1-6(Fucα1-2Galβ1-4GlcNAcβ1-3)Galβ1-4Glc [HMO45]
DC-SIGN
  Binding of DC-SIGN to an HMO chip, RFU: 838.42 RFU

## Galα1-3(Fucα1-2)Galβ1-4GlcNAcβ1-3NAcα [O36]
S1 subunit of SARS-CoV-2
  Binding of the S1 subunit of a virus to an O-sugar chain chip, RFU: 320.5 RFU

## CC(=O)N[C@@H]1[C@@H](O[C@@H]2O[C@H](CO)[C@@H](O[C@@H]3O[C@H](CO)[C@H](O)[C@H](O)[C@H]3O[C@@H]3O[C@@H](C)[C@@H](O)[C@@H](O)[C@@H]3O)[C@H](O[C@@H]3O[C@@H](C)[C@@H](O)[C@@H](O)[C@@H]3O)[C@H]2NC(C)=O)[C@@H](O)[C@@H](CO)O[C@@H]1O [O33, Fucα1-2Galβ1-4(Fucα1-3)GlcNAcβ1-3GalNAcα]
S1 subunit of SARS-CoV-2
  Binding of the S1 subunit of a virus to an O-sugar chain chip, RFU: 6320.17 RFU

## Fucα1-2Galβ1-4(Fucα1-3)GlcNAcβ1-6(Fucα1-2Galβ1-4(Fucα1-3)GlcNAcβ1-3)Galβ1-4Glc [HMO46]
DC-SIGN
  Binding of DC-SIGN to an HMO chip, RFU: 2425.92 RFU

## Fucα1-2Gal 1-4GlcNAcβ1-3Galβ1-4Glc [HMO15]
DC-SIGN
  Binding of DC-SIGN to an HMO chip, RFU: 1683.84 RFU

## GlcNAcβ1-6[Galβ1-4(Fucα1-3)GlcNAcβ1-3]Galβ1-4Glc [HMO31]
DC-SIGN
  Binding of DC-SIGN to an HMO chip, RFU: 2175.59 RFU

## CC(=O)N[C@@H]1[C@@H](O[C@@H]2O[C@H](CO)[C@H](O)[C@H](O)[C@H]2O)[C@@H](O)[C@@H](CO[C@@H]2O[C@H](CO)[C@@H](O)[C@H](O)[C@H]2NC(C)=O)O[C@@H]1O [O23, GlcNAcβ1-6(Galβ1-3)GalNAcα]
S1 subunit of SARS-CoV-2
  Binding of the S1 subunit of a virus to an O-sugar chain chip, RFU: 69.84 RFU

## CC(=O)N[C@H]1[C@H](O[C@H]2[C@@H](O)[C@@H](CO)O[C@@H](O[C@H]3[C@H](O)[C@@H](O)C(O)O[C@@H]3CO)[C@@H]2O)O[C@H](CO)[C@@H](O[C@@H]2O[C@@H](C)[C@@H](O)[C@@H](O)[C@@H]2O)[C@@H]1O[C@@H]1O[C@H](CO)[C@H](O)[C@H](O)[C@H]1O (stereo partly drawn) [HMO13, Galβ1-3(Fucα1-4)GlcNAcβ1-3Galβ1-4Glc]
DC-SIGN
  Binding of DC-SIGN to an HMO chip, RFU: 1896.5 RFU

## Fucα1-2Galβ1-4(Fucα1-3)GlcNAcβ1-3Galβ1-3GalNAcα [O20]
S1 subunit of SARS-CoV-2
  Binding of the S1 subunit of a virus to an O-sugar chain chip, RFU: 304.5 RFU

## Fucα1-2Galβ1-4Glc [HMO3]
DC-SIGN
  Binding of DC-SIGN to an HMO chip, RFU: 2930.75 RFU

## GlcNAcβ1-6[Fucα1-2Galβ1-4(Fucα1-3)GlcNAcβ1-3]Galβ1-4Glc [HMO33]
DC-SIGN
  Binding of DC-SIGN to an HMO chip, RFU: 1913.59 RFU

## nadroparin calcium
[1]
  inhibition activity to pseudovirus invasion and infection of the cells: exhibit an inhibition activity
[2]
  blocking of the binding of the S1 subunit to BEAS-2B cells: can block
[3]
  blocking of the binding of the S1 subunit to Vero-E6 cells: can block

## Galβ1-4(Fucα1-3)Glc [HMO2]
DC-SIGN
  Binding of DC-SIGN to an HMO chip, RFU: 2329.09 RFU

## Neu5Acα2-6Galβ1-4GlcNAcβ1-3(Neu5Acα2-6Galβ1-3GlcNAcβ1-6)GalNAcα [O83]
S1 subunit of SARS-CoV-2
  Binding of the S1 subunit of a virus to an O-sugar chain chip, RFU: 6012.67 RFU

## Galβ1-4(Fucα1-3)GlcNAcβ1-6(Galβ1-4GlcNAcβ1-3)Gal 1-4Glc [HMO43]
DC-SIGN
  Binding of DC-SIGN to an HMO chip, RFU: 1196.59 RFU

## Fucα1-2Galβ1-4(Fucα1-3)GlcNAcβ1-3Gal 1-4Glc [HMO16]
DC-SIGN
  Binding of DC-SIGN to an HMO chip, RFU: 2537.92 RFU

## sodium heparin sulfate
[2]
  blocking of the binding of the S1 subunit to BEAS-2B cells: can block
[3]
  blocking of the binding of the S1 subunit to Vero-E6 cells: can block

## Galβ1-4GlcNAcβ1-6(Fucα1-2Gal 1-4GlcNAcβ1-3)Gal 1-4Glc [HMO40]
DC-SIGN
  Binding of DC-SIGN to an HMO chip, RFU: 801.5 RFU

## sodium chondroitin sulfate
[4]
  blocking of the binding of the S1 protein to bronchial epithelial cells (16HBE): successfully block

## Galβ1-4(Fucα1-3)GlcNAcβ1-6(GlcNAcβ1-3)Gal 1-4Glc [HMO36]
DC-SIGN
  Binding of DC-SIGN to an HMO chip, RFU: 1707.42 RFU
